Measurements taken from the PolyMetriX glass transition set.

| Compound | glass transition temperature [°C] |
| --- | --- |
| *c1ccc2c(c1)C(=O)N(c1cccc(P(=O)(c3cccc(N4C(=O)c5ccc(C(*)(C(F)(F)F)C(F)(F)F)cc5C4=O)c3)c3cc(C(F)(F)F)cc(C(F)(F)F)c3)c1)C2=O (repeat unit) | 247.00 |
| *c1ccc(C(=O)Nc2cccc(S(=O)(=O)c3cccc(NC(=O)c4ccc(N5C(=O)c6ccc(-c7ccc8c(c7)C(=O)N(*)C8=O)cc6C5=O)cc4)c3)c2)cc1 (repeat unit) | 256.00 |
| *c1ccc(-c2ccc(N3C(=O)c4ccc(Oc5ccc(Sc6ccc(Oc7ccc8c(c7)C(=O)N(*)C8=O)cc6)cc5)cc4C3=O)cc2)cc1 (repeat unit) | 257.00 |
| *c1ccc(OCCN(CCOc2ccc(-c3nc4ccc(Oc5ccc6nc(*)c(-c7ccccc7)nc6c5)cc4nc3-c3ccccc3)cc2)c2ccc(/N=N/c3ccc([N+](=O)[O-])cc3C)cc2)cc1 (repeat unit) | 188.00 |
| *Oc1ccc(S(=O)(=O)c2ccc(Oc3ccc(C4(c5ccc(Oc6ccc(S(=O)(=O)c7ccc(Oc8ccc(/C=C9\CCCC/C(=C\c%10ccc(*)cc%10)C9=O)cc8)cc7)cc6)cc5)CCCCCC4)cc3)cc2)cc1 (repeat unit) | 196.00 |
| *CC(*)(C)C(=O)OCCCC1CCCCC1 (repeat unit) | 60.00 |
| *CCCCCCN(C(=O)C(F)(F)C(F)(F)C(F)(F)C(=O)N(*)C(C)C)C(C)C (repeat unit) | 142.50 |
| *CC(*)c1ccccc1C(F)(F)F (repeat unit) | 165.00 |
| *Cc1cc2cc(C(=O)Nc3ccc(Cc4ccc(NC(=O)c5cc6cc(*)c(OC(=O)COc7ccc8ccc(=O)oc8c7)cc6oc5=O)cc4)cc3)c(=O)oc2cc1OC(=O)COc1ccc2ccc(=O)oc2c1 (repeat unit) | 221.00 |
| *CCc1ccc(*)c(CC)c1 (repeat unit) | 25.00 |
| *NC(CCC(=O)OCCCCCCCCCC)C(*)=O (repeat unit) | -62.00 |
| *CC(*)(F)C(=O)OCCC(F)(F)C(F)(F)C(F)(F)C(F)(F)C(F)(F)C(F)(F)C(F)(F)C(F)(F)F (repeat unit) | 87.50 |
| *CCN(CCOC(=O)c1cc(OCc2c(F)c(F)c(OC)c(F)c2F)cc(C(=O)O*)c1)c1ccc(/C=C/c2ccc(/C=C/C3=C(C#N)C(=C(C#N)C#N)OC3(c3ccccc3)C(F)(F)F)s2)cc1 (repeat unit) | 140.00 |
| *CCc1ccc(*)c(CCCC)c1 (repeat unit) | 20.00 |
| *c1ccc([Si](CCCC)(CCCC)[Si](*)(CCCC)CCCC)s1 (repeat unit) | -53.00 |
| *CC(*)C(=O)OCCOCC(F)(F)F (repeat unit) | -38.00 |

Further lines, results first:

| glass transition temperature [°C] | Compound |
| --- | --- |
| 170.00 | */C(=C/c1cc(OC)c(/C=C(/c2ccc(*)cc2)c2ccc(OC)cc2)cc1OC)c1ccc(OC)cc1 (repeat unit) |
| 317.00 | *C(=O)c1ccc2c(c1)C(=O)N(c1ccc(Cc3ccc(Cc4cccc(N5C(=O)c6ccc(*)cc6C5=O)c4)cc3)cc1)C2=O (repeat unit) |
| 38.00 | *CC(*)(C)C(=O)OCCCCCCOc1cccc(C(=O)Oc2ccc(C#N)cc2)c1 (repeat unit) |
| 28.00 | *CC(Cc1ccc(-c2ccccc2)cc1)C[Si](*)(C)C (repeat unit) |
| 218.00 | *Oc1ccc(NC(=O)c2cccc(C(=O)Nc3ccc(OC4COC5C(*)COC45)cc3)c2)cc1 (repeat unit) |
| 277.00 | *Nc1cccc(NC(=O)c2cc(C(*)=O)cc(S(=O)(=O)c3ccccc3)c2)c1 (repeat unit) |
| 175.00 | *Oc1ccc(Oc2ccc(C(=O)c3ccccc3-c3ccccc3C(=O)c3ccc(*)cc3)cc2)cc1 (repeat unit) |
| 230.00 | *c1ccc(Oc2ccc(C(=O)c3ccc(Oc4ccc(C(=O)c5ccc(Oc6ccc(-c7nc(-c8ccccc8)[nH]c7*)cc6)cc5)cc4)cc3)cc2)cc1 (repeat unit) |
